Laboratory results: patent US7223728B2, “Synergistic use of thiazolidinediones with glucagon-like peptide-1 and agonists thereof to treat metabolic instability associated with non-insulin dependent diabetes” (Eli Lilly and Company, priority 1999, dated 2007)

Tested on: Zucker Diabetic Fatty (ZDF) rats
Assay: Seven-week co-administration study of TZD 300512 and IP^7-GLP-1 (7–37)OH in diabetic rats (heart weight, blood glucose, insulin)
Format: in vivo, rat
Excerpt: This study was designed to evaluate the effects of using a combination of sub-optimal doses of a TZD and a GLP-1 agonist on glucose metabolism and in addition, if this combination therapy would prevent occurrence of heart hypertrophy that is associated with optimal doses of TZD derivatives. Eight week old Zucker Diabetic Fatty (Genetic Models, Inc.) rats (ZDF) weighing about 350 grams were used in this study. Animals were allowed free access to water, and Purina Formulab 5008 chow. TZD 300512 was administered as 0.00006% diet admixture while IP^7-GLP-1 (7–37)OH, a GLP-1 agonist, was infused subcutaneously at a constant rate of 0.06 ug/min via implant Aztet pumps. The duration of study was seven weeks, and food consumption and body weight were monitored daily. Plasma glucose and insulin levels were measured weekly, and Glycated hemoglobin A1c was measured at the end of the study. Heart weights also were measured at the end of the study.
Table 1 summarizes final rat weight, daily food intake, plasma glucose levels, plasma insulin levels, Hbalc, and heart weight. Values were rounded off to the nearest decimal point.

[1] = ZDF rats, TZD 0.00006% diet admixture, IP^7 0.06 ug/min subcutaneous infusion, seven weeks
[2] = ZDF rats, measured at the end of the seven-week study

Weight (final rat weight) [1]: 414.7 ± 7.9 g
Heart wt [2]: 1.2 ± 0.03 g
Substance: 4-imidazopropionyl-GLP-1 (7–37)OH [IP^7]
Glucose (plasma glucose level) (ZDF rats, fed state, TZD 0.00006% diet admixture, IP^7 0.06 ug/min subcutaneous infusion, seven weeks): 367.5 ± 58.0 mg/dL
Food Int (daily food intake) [1]: 30.4 ± 1.2 g/day
Insulin (plasma insulin level) [1]: 13.0 ± 2.9 ng/mL
Hbalc (glycated hemoglobin A1c) [2]: 9.5 ± 1.0%
Fed state plasma-glucose level as % of control levels (diabetic ZDF rats, 42-day treatment period): 57.5 % of control levels
Course of plasma glucose levels over the 42-day treatment period (diabetic rats, 42-day treatment): increased
